Laboratory results published in ChEMBL document CHEMBL1201862, “PubChem BioAssay data set” (2004).
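Step 1: Grow cells in 96-well plates. Step 2: Expose to compound for 48 hours at 5 concentrations. Step 3: Interpolate endpoints linearly; if unreached, use highest concentration. GI50 is the concentration that inhibits growth by half.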 Active and inactive are the calls of the source. Rule as the data show it: active = GI50 up to about 1.1 µM and inactive = higher.

Assays:
Assay in all cases: NCI-60 cell line screen, 48 h
SF-539 = test system: SF-539
NCI-H226 = test system: NCI-H226
ACHN = test system: ACHN
SN12C = test system: SN12C
SF-295 = test system: SF-295
CCRF-CEM = test system: CCRF-CEM
LOX IMVI = test system: LOX IMVI
A549 = test system: A549
RXF 393 = test system: RXF 393
M14 = test system: M14
OVCAR-5 = test system: OVCAR-5
UACC-257 = test system: UACC-257
UO-31 = test system: UO-31
SK-MEL-28 = test system: SK-MEL-28
HOP-62 = test system: HOP-62
OVCAR-3 = test system: OVCAR-3

Measured: GI50

CCOC(=O)c1[nH]c2cc(OC)c(OC)cc2c1CN(C)C
inactive: SF-539 > 100 µM | NCI-H226 > 100 µM | ACHN > 100 µM | SN12C > 100 µM | SF-295 > 100 µM | CCRF-CEM > 100 µM | LOX IMVI > 100 µM | A549 > 100 µM | RXF 393 > 100 µM | M14 > 100 µM | OVCAR-5 > 100 µM | UACC-257 > 100 µM | UO-31 > 100 µM | SK-MEL-28 > 100 µM

Cc1occ2c1C(=O)CC1C2[C@@H](O)CC2C(C)(C)CCC[C@]12C (some centres undefined)
inactive: SF-539 > 100 µM | NCI-H226 > 100 µM | ACHN > 100 µM | SN12C > 100 µM | SF-295 > 100 µM | CCRF-CEM 42.7 µM | HOP-62 > 100 µM | A549 > 100 µM | RXF 393 > 100 µM | M14 > 100 µM | UACC-257 > 100 µM | UO-31 > 100 µM | SK-MEL-28 > 100 µM

O=C(CC1(O)C(=O)Nc2ccccc21)c1ccccc1Cl (centres undefined)
inactive: SF-539 > 100 µM | NCI-H226 > 100 µM | ACHN > 100 µM | SN12C > 100 µM | OVCAR-3 > 100 µM | SF-295 > 100 µM | LOX IMVI > 100 µM | A549 > 100 µM | RXF 393 > 100 µM | M14 > 100 µM | OVCAR-5 > 100 µM | UACC-257 > 100 µM | UO-31 64.9 µM | SK-MEL-28 > 100 µM

N#CCc1ccc(C(C#N)/C(CCCC(=O)Nc2cccc([N+](=O)[O-])c2)=N\NC(=O)NN)cc1 (centres undefined)
inactive: SF-539 > 100 µM | NCI-H226 > 100 µM | ACHN > 100 µM | SN12C > 100 µM | OVCAR-3 > 100 µM | SF-295 > 100 µM | CCRF-CEM > 100 µM | HOP-62 > 100 µM | A549 > 100 µM | RXF 393 > 100 µM | M14 > 100 µM | OVCAR-5 > 100 µM | UACC-257 > 100 µM | UO-31 > 100 µM | SK-MEL-28 > 100 µM

CCNC(=O)O/N=C1\CCC2[C@@H]3CC=C4C[C@@H](OC5CCCCO5)CC[C@]4(C)C3CC[C@]12C (some centres undefined)
inactive: SF-539 6.19 µM | ACHN 1.45 µM | SN12C 2.12 µM | OVCAR-3 2.59 µM | SF-295 2.17 µM | HOP-62 22.3 µM | LOX IMVI 1.58 µM | A549 2.74 µM | RXF 393 2.2 µM | M14 1.71 µM | OVCAR-5 2.48 µM | UACC-257 1.61 µM | UO-31 1.44 µM | SK-MEL-28 3.19 µM

CC(=O)c1ccc(NC(=O)C(=O)Nn2c(S)nc3ccccc3c2=O)cc1
inactive: SF-539 > 100 µM | NCI-H226 > 100 µM | ACHN > 100 µM | SN12C > 100 µM | OVCAR-3 > 100 µM | SF-295 > 100 µM | HOP-62 > 100 µM | LOX IMVI > 100 µM | A549 > 100 µM | RXF 393 > 100 µM | M14 > 100 µM | OVCAR-5 > 100 µM | UACC-257 > 100 µM | UO-31 > 100 µM | SK-MEL-28 > 100 µM

CCCCCC[C@@H]1CCC2C(CO)[C@@H](O)CC[C@@H]2C1 (some centres undefined)
inactive: SF-539 18.7 µM | NCI-H226 20.6 µM | ACHN 19.1 µM | SN12C 16.6 µM | OVCAR-3 15.8 µM | SF-295 16.2 µM | CCRF-CEM 23.6 µM | HOP-62 18.3 µM | LOX IMVI 19.3 µM | A549 17.4 µM | M14 17.5 µM | OVCAR-5 18.5 µM | UACC-257 16.7 µM | UO-31 20.7 µM | SK-MEL-28 19.6 µM

CC1(C)C2CCC3(C2)CS(=O)(=O)N2OC231 (centres undefined)
inactive: SF-539 18.5 µM | ACHN 15.9 µM | SN12C 16.9 µM | OVCAR-3 19.1 µM | SF-295 > 100 µM | CCRF-CEM 24.5 µM | HOP-62 79.8 µM | LOX IMVI 16.3 µM | A549 > 100 µM | M14 16.2 µM | OVCAR-5 23.7 µM | UACC-257 17.1 µM | UO-31 16.1 µM | SK-MEL-28 25.4 µM

CN(C)c1n/c(=N/c2ccc3ccccc3c2)ss1
inactive: SF-539 78.9 µM | NCI-H226 13.4 µM | ACHN 20.6 µM | SN12C 32.9 µM | OVCAR-3 12.2 µM | CCRF-CEM 7.05 µM | HOP-62 41.8 µM | A549 12.2 µM | RXF 393 41.9 µM | M14 24 µM | UACC-257 16.5 µM | UO-31 23.4 µM | SK-MEL-28 34.8 µM

Cc1c(-c2ccccc2)c(=O)oc2ccc(Cl)cc12
inactive: SF-539 38.2 µM | NCI-H226 > 100 µM | SN12C > 100 µM | OVCAR-3 > 100 µM | SF-295 > 100 µM | CCRF-CEM > 100 µM | HOP-62 27.9 µM | LOX IMVI > 100 µM | A549 > 100 µM | M14 26.7 µM | OVCAR-5 > 100 µM | UACC-257 8.55 µM | UO-31 > 100 µM | SK-MEL-28 > 100 µM

COCCCNC(=O)CC(=O)NCCCOC
inactive: SF-539 > 100 µM | ACHN > 100 µM | SN12C > 100 µM | OVCAR-3 > 100 µM | SF-295 > 100 µM | CCRF-CEM > 100 µM | HOP-62 > 100 µM | A549 > 100 µM | RXF 393 > 100 µM | M14 > 100 µM | OVCAR-5 > 100 µM | UACC-257 > 100 µM | UO-31 > 100 µM | SK-MEL-28 > 100 µM

COc1cc(C(=O)NO)ccc1O
inactive: SF-539 87.7 µM | ACHN > 100 µM | SN12C > 100 µM | OVCAR-3 > 100 µM | SF-295 > 100 µM | CCRF-CEM > 100 µM | HOP-62 > 100 µM | LOX IMVI > 100 µM | A549 > 100 µM | RXF 393 > 100 µM | M14 > 100 µM | OVCAR-5 > 100 µM | UACC-257 > 100 µM | UO-31 > 100 µM | SK-MEL-28 > 100 µM

COc1ccc(C(c2ccccc2C(=O)O)c2ccc(OC)c3ccccc23)c2ccccc12
inactive: SF-539 12 µM | NCI-H226 20 µM | ACHN 10.4 µM | SN12C 10.9 µM | OVCAR-3 13.5 µM | SF-295 11.1 µM | CCRF-CEM 8.79 µM | HOP-62 15.5 µM | LOX IMVI 18 µM | A549 7.48 µM | M14 16.2 µM | OVCAR-5 15.1 µM | UACC-257 4.85 µM | UO-31 4.9 µM

CCOC(=O)C(C(=O)Cc1ccccc1)c1ccccc1 (centres undefined)
inactive: SF-539 > 100 µM | NCI-H226 > 100 µM | ACHN > 100 µM | SN12C > 100 µM | OVCAR-3 > 100 µM | SF-295 > 100 µM | CCRF-CEM > 100 µM | HOP-62 > 100 µM | LOX IMVI > 100 µM | A549 > 100 µM | M14 > 100 µM | OVCAR-5 > 100 µM | UACC-257 > 100 µM | UO-31 > 100 µM | SK-MEL-28 > 100 µM
